In the oligonucleotide strings, read from the 5' end, every base follows the letter of its sugar. An asterisk marks phosphorothioate; unmarked linkages are phosphodiester. Other units and linkages are bracketed, terminal groups are in braces. A string of capitals states the bases alone. e = 2'-O-(2-methoxyethyl) (MOE); [5mC] = 5-methylcytosine; d = 2'-deoxy (DNA)
Key:
[1] = tested on: PEPCK-c; assay: PEPCK-c mRNA expression in HepG2 cells; type: cell-based, human; settings: for PEPCKc mRNA expression: Experiment 2, insulin treated: HepG2 cells transfected with oligomeric compound, 1 nM insulin for four hours, UTC + 1 nM insulin = 100; for PEPCKc mRNA: Experiment 1, basal (no insulin), four hours, UTC = 100
Experimental: (§1) Approximately 28 hours after transfection, the cells are subjected to serum starvation for a period of 12 to 16 hours, using serum-free growth medium. Following serum starvation, cells are treated with 1 nM insulin (insulin-treated) or are left untreated (basal conditions) for approximately four hours. At the same time, untreated control cells in both plates are treated with 100 nM insulin to determine the maximal insulin response. Following insulin treatment (forty-eight hours after transfection), total RNA is harvested from all samples, and the amount of total RNA from each sample is determined using a Ribogreen assay (Invitrogen Corporation, Carlsbad, Calif.). Real-time PCR is performed on the total RNA samples using primer/probe sets for three insulin responsive genes: insulin-like growth factor binding protein-1 (IGFBP-1), cytosolic PEPCK (PEPCK-C), and follistatin. Gene expression levels obtained by real-time PCR are normalized for total RNA content in the samples.
(§2) Oligomeric compounds of the present invention were tested for their effects on insulin signaling in HepG2 cells. HepG2 cells were plated at 7500 cells/well in collagen coated 96-well plates. The following day, cells were transfected with oligomeric compounds targeting miRNAs using 100 nM oligomeric compound in LIPOFECTIN™ (Invitrogen Corporation, Carlsbad, Calif.) in two 96-well plates. The oligomeric compounds were tested in triplicate on each 96-well plate, except for positive and negative controls, which were measured up to six times per plate. At the end of transfection, the transfection medium was replaced by regular growth medium. Twenty-eight hours post-transfection, the cells were subjected to overnight (sixteen to eighteen hours) serum starvation using serum free growth medium. Forty-four hours post-transfection, the cells in the transfected wells were treated with either no insulin (“basal” Experiment 1, for identification of insulin-mimetic compounds) or with 1 nM insulin (“insulin treated” Experiment 2, for identification of insulin sensitizers) for four hours. At the same time, in both plates, cells in some of the un-transfected control wells are treated with 100 nM insulin to determine maximal insulin response. At the end of the insulin or no-insulin treatment (forty-eight hours post-transfection), total RNA is isolated from both the basal and insulin treated (1 nM) 96-well plates, and the amount of total RNA from each sample is determined using a Ribogreen assay (Molecular Probes, Eugene, Oreg.). Real-time PCR is performed on all the total RNA samples using primer/probe sets for three insulin responsive genes: PEPCK-c, IGFBP-1 and follistatin. Expression levels for each gene are normalized to total RNA, and values+standard deviation are expressed relative to the transfectant only untreated control (UTC) and negative control compounds.
(§3) Protocols for treatment of HepG2 cells and transfection of oligomeric compounds are as described in Example 18. Also as described in Example 18, forty-four hours post-transfection, the cells in the transfected wells were treated with either no insulin (“basal” Experiment 3 (below), for identification of insulin-mimetic compounds) or with 1 nM insulin (“insulin treated” Experiment 4 (below), for identification of insulin sensitizers) for four hours. At the same time, in both plates, cells in some of the un-transfected control wells are treated with 100 nM insulin to determine maximal insulin response. At the end of the insulin or no-insulin treatment (forty-eight hours post-transfection), total RNA is isolated from both the basal and insulin treated (1 nM) 96-well plates, and the amount of total RNA from each sample is determined using a Ribogreen assay (Molecular Probes, Eugene, Oreg.).

[2] = tested on: IGFBP-1; assay: IGFBP-1 mRNA expression in HepG2 cells; type: cell-based, human; settings: for IGFBP1 mRNA expression: Experiment 2, insulin treated: HepG2 cells transfected with oligomeric compound, 1 nM insulin for four hours, UTC + 1 nM insulin = 100; for IGFBP1 mRNA: Experiment 1, basal (no insulin), four hours, UTC = 100
Experimental: as §1, §2, §3

[3] = tested on: follistatin; assay: Follistatin mRNA expression in HepG2 cells; type: cell-based, human; settings: for Follistatin mRNA expression: Experiment 2, insulin treated: HepG2 cells transfected with oligomeric compound, 1 nM insulin for four hours, UTC + 1 nM insulin = 100; for Follistatin mRNA: Experiment 1, basal (no insulin), four hours, UTC = 100
Experimental: as §1, §2, §3

[4] = tested on: HeLa cells; assay: Cell cycle assay in HeLa cells; type: cell-based, human; settings: HeLa cells, 150 nM oligomeric compound
[5] = tested on: T47D cells; assay: Caspase-3 activity assay (apoptosis) in T47D cells; settings: T47D cells, 48 hours; for Fold Increase over UTC (caspase-3 activity, apoptosis): 200 nM oligomeric compound, experiment of Table 10
[6] = tested on: BJ, B16-F10, T47D, T47Dp53 and HeLa cells; assay: Cell cycle assay (propidium iodide flow cytometry), cell line panel; type: cell-based; settings: 150 nM oligomeric compound, 4.5 μg/ml LIPOFECTIN, after 72 hours, propidium iodide flow cytometry
[7] = tested on: adipocytes; assay: Triglyceride accumulation assay in adipocytes; type: cell-based, human; settings: differentiating adipocytes transfected with oligomeric compound; Table 75
[8] = tested on: aP2; assay: aP2 mRNA expression in adipocytes (real-time PCR); type: cell-based, human; settings: differentiating adipocytes transfected with oligomeric compound; Table 75
[9] = tested on: HSL; assay: HSL mRNA expression in adipocytes (real-time PCR); type: cell-based, human; settings: differentiating adipocytes transfected with oligomeric compound; Table 75
[10] = tested on: Glut4; assay: Glut4 mRNA expression in adipocytes (real-time PCR); type: cell-based, human; settings: differentiating adipocytes transfected with oligomeric compound; Table 75
[11] = tested on: PPARγ; assay: PPARγ mRNA expression in adipocytes (real-time PCR); type: cell-based, human; settings: differentiating adipocytes transfected with oligomeric compound; Table 75
[12] = 24 hours, relative to untreated control (UTC = 100)
[13] = 48 hours after treatment, relative to untreated control (UTC=100)
[14] = Experiment 3, basal (no insulin), HepG2 cells, 48 hours post-transfection
[15] = Experiment 4, insulin-sensitization: HepG2 cells treated with 1 nM insulin for four hours, 48 h post-transfection, mRNA by real-time PCR

| Substance | PEPCKc mRNA expression [1] | IGFBP1 mRNA expression [2] | Follistatin mRNA expression [3] | G1 (percentage of cells in phase of the cell cycle) [6] | G2/M (percentage of cells in phase of the cell cycle) [6] | S (percentage of cells in phase of the cell cycle) [6] | SubG1 (percentage of cells in phase of the cell cycle) [6] | aneuploid (percentage of cells) [6] | Fold Increase over UTC (caspase-3 activity, apoptosis) [5] | TG (triglyceride accumulation) [7] | aP2 mRNA [8] | HSL mRNA [9] | GLUT4 mRNA [10] | PPAR gamma mRNA [11] | PEPCKc mRNA ([1]; HepG2 cells) | IGFBP1 mRNA ([2]; HepG2 cells) | Follistatin mRNA ([3]; HepG2 cells) | further results |
| --- | --- | --- | --- | --- | --- | --- | --- | --- | --- | --- | --- | --- | --- | --- | --- | --- | --- | --- |
| 328397 (antisense eT*eT*eG*eA*eT*d[5mC]*d[5mC]*dA*dT*dA*dT*dG*d[5mC]*dA*dA*e[5mC]*eA*eA*eG*eG) [compound 328397] | 76 | 57 | 75 | – | – | – | – | – | – | – | – | – | – | – | – | – | – | % cells aneuploid [4, 12]: 91%; % cells in cell cycle phase G1 [4, 12]: 93%; % cells in cell cycle phase G2/M [4, 12]: 142%; % cells in cell cycle phase S [4, 12]: 86%; % cells in cell cycle phase subG1 [4, 12]: 134%; % cells in cell cycle phase: G1 [4, 13]: 97%; % cells in cell cycle phase: G2/M [4, 13]: 109%; % cells in cell cycle phase: S [4, 13]: 101%; % cells in cell cycle phase: aneuploid [4, 13]: 96%; % cells in cell cycle phase: subG1 [4, 13]: 74%; Fold Increase over UTC (caspase activity) ([5]; 200 nM, relative to untreated control): 1.2 |
| 328423 (antisense e[5mC]*e[5mC]*eA*e[5mC]*eA*dT*dA*dT*dA*d[5mC]*dA*dT*dA*dT*dA*eT*eA*e[5mC]*eG*e[5mC]) [compound 328423] | 77 | 69 | 114 | 52.9% | 14.8% | 32.4% | 4.9% | 15.3% | 0.6 fold | – | – | – | – | – | – | – | – | – |
| 328649 (eG*eT*eA*eG*eA*dT*dA*dA*d[5mC]*dT*dA*dA*dA*d[5mC]*dA*e[5mC]*eT*eA*e[5mC]*e[5mC]; antisense) [compound 328649] | 86 | 115 | 69 | – | – | – | – | – | 1.0 fold | – | – | – | – | – | – | – | – | – |
| 328773 (antisense eT*eA*e[5mC]*eT*eT*dT*dA*d[5mC]*dT*d[5mC]*d[5mC]*dA*dA*dG*dG*eT*eT*eT*eT*eA) [compound 328773] | – | – | – | 56.4% | 16.7% | 26.9% | 2.7% | 11.7% | – | – | – | – | – | – | – | – | – | PEPCK-c (% UTC) [1, 14]: 138 % UTC; PEPCK-c (% UTC) [1, 15]: 93 % UTC; IGFBP-1 (% UTC) [2, 14]: 148 % UTC; IGFBP-1 (% UTC) [2, 15]: 136 % UTC; Follistatin (% UTC) [3, 14]: 131 % UTC; Follistatin (% UTC) [3, 15]: 148 % UTC |
| 341801 (antisense CCUAUCUCCCCUCUGGACC; all 2'-MOE, all phosphorothioate, methylation of C and T or U not given here) [compound 341801] | – | – | – | – | – | – | – | – | – | 65 percentage of untreated control (UTC) | 90 percentage of untreated control (UTC) | 89 percentage of untreated control (UTC) | 77 percentage of untreated control (UTC) | 82 percentage of untreated control (UTC) | 73 | 99 | 85 | – |
| 341802 (antisense AGCUGCUUUUGGGAUUCCGUUG; all 2'-MOE, all phosphorothioate, methylation of C and T or U not given here) [compound 341802] | – | – | – | – | – | – | – | – | – | 155 percentage of untreated control (UTC) | 98 percentage of untreated control (UTC) | 121 percentage of untreated control (UTC) | 85 percentage of untreated control (UTC) | 127 percentage of untreated control (UTC) | 98 | 186 | 136 | – |

— US8178506B2, “Oligomeric compounds and compositions for use in modulation of small non-coding RNAs” (Regulus Therapeutics Inc., priority 2003, dated 2012)
